{"source": "patent US20090275515A1", "about": "“2-HYDROXY-2-PHENYLTHIOPHENYLPROPIONAMIDES AS ANDROGEN RECEPTOR MODULATORS” (priority 2006, published 2009)", "experiment": "biochemical assays (not further specified)", "settings": "compound coupled from the second-peak acid 5-4 (RT=21 min)"}
{"compound": "O=C(NCc1cc(C(F)(F)F)ccn1)[C@](O)(c1ccccc1)C(F)(F)C(F)(F)F", "note": "[Example 7, (2R)-3,3,4,4,4-Pentafluoro-2-hydroxy-2-phenyl-N-(4-trifluoromethyl-pyridin-2-ylmethyl)-butyramide]", "values": [{"measurement": "activity in the biochemical assays", "value": "active"}]}
